From patent US20250195513A1, “DEGRADATION OF IRAK4 BY CONJUGATION OF IRAK4 INHIBITORS WITH E3 LIGASE LIGAND AND METHODS OF USE” (BeiGene, Ltd., priority 2022, published 2025)

What was measured:
Assay type in all cases: cell-based
IRAK4 [1] = biological target: T1, IRAK4 (Homo sapiens, UniProt Q9NWZ3); assay: IRAK4 Degradation Assay with Human Serum (Karpas299, HTRF/TR-FRET); details: Karpas-299 in human serum, 24 hrs treatment; for DC50: read-out: IRAK4 degradtion with human serum assay DC50; for Dmax: read-out: IRAK4 degradtion with human serum assay Dmax (%)
T1 construct: endogenous in cells; host or cells: Karpas299
T1 sequence (Q9NWZ3 1-460): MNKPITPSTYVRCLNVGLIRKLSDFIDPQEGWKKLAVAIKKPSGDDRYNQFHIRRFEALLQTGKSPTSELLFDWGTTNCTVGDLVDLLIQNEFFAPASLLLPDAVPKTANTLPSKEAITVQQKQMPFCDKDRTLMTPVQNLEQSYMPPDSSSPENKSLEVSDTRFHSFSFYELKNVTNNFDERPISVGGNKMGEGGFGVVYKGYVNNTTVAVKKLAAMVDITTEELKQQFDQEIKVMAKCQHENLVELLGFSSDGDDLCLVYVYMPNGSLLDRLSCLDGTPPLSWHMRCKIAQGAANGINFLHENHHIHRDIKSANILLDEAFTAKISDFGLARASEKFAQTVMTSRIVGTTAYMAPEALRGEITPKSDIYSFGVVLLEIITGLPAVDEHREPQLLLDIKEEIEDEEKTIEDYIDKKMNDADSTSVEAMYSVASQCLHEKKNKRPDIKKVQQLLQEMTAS
Method in brief: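 Remaining IRAK4 measured by TR-FRET immunoassay on lysates of Karpas299 cells exposed 24 h to compound dilution series in human serum AB. DC50 derived from a Hill-slope fit of % degradation versus concentration.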

IRAK4 [2] = biological target: T1, IRAK4; assay: IRAK4 Degradation Assay (Karpas299, HTRF/TR-FRET); details: Karpas-299 cells; for Dmax: maximum percentage of degradation
Method in brief: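 Compound potency as DC50 (IC50) came from four-parameter fits of percent IRAK4 degradation. IRAK4 was measured by HTRF (665/620 nm) in lysates of Karpas299 cells seeded at 0.2 million per well. Cells had been treated with compound dilutions for 5 or 24 h.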

[3] = system: TNF-α production in THP-1 cells; assay: TNF-α Production Assay in THP-1 Cells (LPS stimulated); details: Homo sapiens, THP-1, 24 h; for Emax: maximum inhibition, read-out: TNF-α (THP-1) 24 h IMax
Protocol: THP-1 cells maintained in RPMI 1640 medium (Thermo Scientific) supplemented with 10% FBS (Thermo Scientific), 100 units/mL penicillin and 0.1 mg/mL streptomycin (Thermo Scientific) were seeded into 96-well plates at the density of 0.2 million cells per well and then treated with compounds for 24 h. Lipopolysaccharide was subsequently added at the final concentration of 1 μg/mL for 24 h. Culture supernatant was collected for measurement of TNF-α concentration by a TR-FRET-based method (Degorce, François, et al. Current chemical genomics. 2009, 3: 22) as described by the manufacturer manual (Cisbio). FRET signals were measured using a PHERAstar FSX reader (BMG Labtech).

[4] = 24 h treatment, read-out: IRAK4 in Karpas-299 (24 h) Dmax (%)
[5] = 24 h treatment, read-out: IRAK4 in Karpas-299 (24 h) DC50
[6] = 5 h treatment, read-out: IRAK4 in Karpas-299 (5 h) Dmax (%)
[7] = 5 h treatment, read-out: IRAK4 in Karpas-299 (5 h) DC50

SMILES | DC50 (IRAK4 [1]) [nM] | Dmax (IRAK4 [1]) [%] | Dmax (IRAK4 [2]; [4]) [%] | DC50 (IRAK4 [2]; [5]) [nM] | IC50 [3] [nM] | Emax [3] [%] | Dmax (IRAK4 [2]; [6]) [%] | DC50 (IRAK4 [2]; [7]) [nM]
COc1cc(N2CC(C(=O)N3CCN([C@H]4CC[C@H](n5cc6cc(NC(=O)c7ccc8cc(C#N)cnn78)c7c(c6n5)OCO7)CC4)CC3)C2)ccc1[C@H]1CCC(=O)NC1=O [Example 356] | 14 | 102 | 98 | 1.3 | 12 | 90 |  | 
COc1cc(N2CC(C(=O)N3CCN([C@H]4CC[C@H](n5cc6cc(NC(=O)c7ccc8cc(C#N)cnn78)c(C(C)(C)O)cc6n5)CC4)CC3)C2)ccc1[C@H]1CCC(=O)NC1=O [Example 259] | 6.3 | 101 | 98 | 0.8 | 19 | 90 |  | 
COc1cc(N2CC(C(=O)N3CCN([C@H]4CC[C@H](n5cc6cc(NC(=O)c7ccc8cc(C#N)cnn78)c(C(C)(C)O)cc6n5)CC4)CC3)C2)ccc1N1CCC(=O)NC1=O [Example 269] | 11 | 94 | 97 | 1.8 | 24 | 89 |  | 
CC(C)(O)c1cc2nn([C@H]3CC[C@H](N4CCN(C(=O)CNc5cc(F)c([C@H]6CCC(=O)NC6=O)c(F)c5)CC4)CC3)cc2cc1NC(=O)c1ccc2cc(C#N)cnn12 [Example 193, 3-cyano-N-(2-((1R,4r)-4-(4-((4-((R)-2,6-dioxopiperidin-3-yl)-3,5-difluorophenyl)glycyl)piperazin-1-yl)cyclohexyl)-6-(2-hydroxypropan-2-yl)-2H-indazol-5-yl)pyrrolo[1,2-b]pyridazine-7-carboxamide] | 5.8 | 102 | 97 | 0.4 | 20 | 58 |  | 
CC(C)(O)c1cc2nn([C@H]3CC[C@H](N4CCN(C(=O)C5CN(c6cc(F)c(N7CCC(=O)NC7=O)c(F)c6)C5)CC4)CC3)cc2cc1NC(=O)c1ccc2cc(C#N)cnn12 [Example 105, 3-cyano-N-(2-((1r,4r)-4-(4-(1-(4-(2,4-dioxotetrahydropyrimidin-1(2H)-yl)-3,5-difluorophenyl)azetidine-3-carbonyl)piperazin-1-yl)cyclohexyl)-6-(2-hydroxypropan-2-yl)-2H-indazol-5-yl)pyrrolo[1,2-b]pyridazine-7-carboxamide] | 21 | 98 | 98 | 0.7 | 36 | 78 | 97 | 3.1
C[C@H]1CN([C@H]2CC[C@H](n3cc4cc(NC(=O)c5ccc6cc(C#N)cnn56)c(C(C)(C)O)cc4n3)CC2)CCN1C(=O)C1CN(c2cc(F)c([C@H]3CCC(=O)NC3=O)c(F)c2)C1 [Example 311, 3-cyano-N-(2-((1S,4r)-4-((S)-4-(1-(4-((R)-2,6-dioxopiperidin-3-yl)-3,5-difluorophenyl)azetidine-3-carbonyl)-3-methylpiperazin-1-yl)cyclohexyl)-6-(2-hydroxypropan-2-yl)-2H-indazol-5-yl)pyrrolo[1,2-b]pyridazine-7-carboxamide] | 15 | 99 | 98 | 0.8 | 29 | 91 |  | 
CC(C)(O)c1cc2nn([C@H]3CC[C@H](N4CCN(CCNc5cc(F)c([C@H]6CCC(=O)NC6=O)c(F)c5)CC4)CC3)cc2cc1NC(=O)c1ccc2cc(C#N)cnn12 [Example 194, 3-cyano-N-(2-((1R,4r)-4-(4-(2-((4-((R)-2,6-dioxopiperidin-3-yl)-3,5-difluorophenyl)amino)ethyl)piperazin-1-yl)cyclohexyl)-6-(2-hydroxypropan-2-yl)-2H-indazol-5-yl)pyrrolo[1,2-b]pyridazine-7-carboxamide] | 6.2 | 96 | 98 | 1.1 | 30 | 53 | 93 | 1.6
CC(C)(O)c1cc2nn(C34CC(N5CCN(CC6CN(c7cc(F)c(N8CCC(=O)NC8=O)c(F)c7)C6)CC5)(C3)C4)cc2cc1NC(=O)c1ccc2cc(C#N)cnn12 [Example 354, 3-cyano-N-(2-(3-(4-((1-(4-(2,4-dioxotetrahydropyrimidin-1(2H)-yl)-3,5-difluorophenyl)azetidin-3-yl)methyl)piperazin-1-yl)bicyclo[1.1.1]pentan-1-yl)-6-(2-hydroxypropan-2-yl)-2H-indazol-5-yl)pyrrolo[1,2-b]pyridazine-7-carboxamide] | 10 | 93 | 98 | 2.4 | 44 | 96 |  | 
CC(C)(O)c1cc2nn([C@H]3C[C@H](N4CCN(C(=O)C5CN(c6cc(F)c([C@H]7CCC(=O)NC7=O)c(F)c6)C5)CC4)C3)cc2cc1NC(=O)c1ccc2cc(C#N)cnn12 [Example 201, 3-cyano-N-(2-((1R,3r)-3-(4-(1-(4-((R)-2,6-dioxopiperidin-3-yl)-3,5-difluorophenyl)azetidine-3-carbonyl)piperazin-1-yl)cyclobutyl)-6-(2-hydroxypropan-2-yl)-2H-indazol-5-yl)pyrrolo[1,2-b]pyridazine-7-carboxamide] | 11 | 99 | 96 | 0.8 | 6.7 | 80 |  | 
COC[C@@H]1CN([C@H]2CC[C@H](n3cc4cc(NC(=O)c5ccc6cc(C#N)cnn56)c(C(C)(C)O)cc4n3)CC2)CCN1C(=O)C1CN(c2cc(F)c([C@H]3CCC(=O)NC3=O)c(F)c2)C1 [Example 186, 3-cyano-N-(2-((1S,4r)-4-((S)-4-(1-(4-((R)-2,6-dioxopiperidin-3-yl)-3,5-difluorophenyl)azetidine-3-carbonyl)-3-(methoxymethyl)piperazin-1-yl)cyclohexyl)-6-(2-hydroxypropan-2-yl)-2H-indazol-5-yl)pyrrolo[1,2-b]pyridazine-7-carboxamide] | 9.2 | 101 | 99 | 0.9 | 29 | 89 |  | 
COC[C@H]1CN([C@H]2CC[C@H](n3cc4cc(NC(=O)c5ccc6cc(C#N)cnn56)c(C(C)(C)O)cc4n3)CC2)CCN1C(=O)C1CN(c2cc(F)c(N3CCC(=O)NC3=O)c(F)c2)C1 [Example 315, 3-cyano-N-(2-((1R,4r)-4-((R)-4-(1-(4-(2,4-dioxotetrahydropyrimidin-1(2H)-yl)-3,5-difluorophenyl)azetidine-3-carbonyl)-3-(methoxymethyl)piperazin-1-yl)cyclohexyl)-6-(2-hydroxypropan-2-yl)-2H-indazol-5-yl)pyrrolo[1,2-b]pyridazine-7-carboxamide] | 18 | 99 | 95 | 0.6 | 22 | 93 | 97 | 0.9
C[C@@H]1CN(C(=O)C2CN(c3cc(F)c([C@H]4CCC(=O)NC4=O)c(F)c3)C2)CCN1[C@H]1CC[C@H](n2cc3cc(NC(=O)c4ccc5cc(C#N)cnn45)c(C(C)(C)O)cc3n2)CC1 [Example 298, 3-cyano-N-(2-((1R,4r)-4-((R)-4-(1-(4-((R)-2,6-dioxopiperidin-3-yl)-3,5-difluorophenyl)azetidine-3-carbonyl)-2-methylpiperazin-1-yl)cyclohexyl)-6-(2-hydroxypropan-2-yl)-2H-indazol-5-yl)pyrrolo[1,2-b]pyridazine-7-carboxamide] | 9.8 | 103 | 99 | 0.3 | 13 | 93 |  | 
